pIC50: −log10 of the molar value.
Tested on: 276233-004-R-J1-PDC KRAS spheroids with HUVEC/MSC, viability
Assay: Anticancer human tumor 276233-004-R-J1-PDC patient-derived colon adenocarcinoma cell line growth inhibition [KRAS2]
Details: for pIC50: curve of first compound; for viability, T/C: stronger effect = lower value
Source text: Multicellular complex tumor spheroid response to RAS pathway inhibitors in combination with a targeted agents in patient-derived cell lines with oncogenic KRAS variants from multiple cancer types
A high-throughput screen of multi-cell type tumor spheroids was designed to identify active combinations of targeted small molecules and KRAS pathway inhibitors. Complex spheroids include a stromal component modeled by human endothelial cells (HUVEC) and fibroblasts modeled by human mesenchymal stem cells (MSCs). The concentration ranges selected for each drug and investigational agent were based upon clinically achievable concentrations if the clinical Cmax of the agent was known.
Compounds. The drugs and investigational agents: BI-3406 (NSC825286), BAY-293 (NSC824723), batoprotafib (TNO155; NSC825523), sotorasib (AMG 510; NSC818433), MRTX1257 (NSC819558), elimusertib (BAY 1895344; NSC800525), molibresib (GSK525762; NSC774829), temuterkib (LY3214996; NSC803410), venetoclax (NSC766270), alisertib (NSC759677), olaparib (NSC753686), talazoparib (NSC767125), erdafitinib (NSC781556), ipatasertib (NSC767898), cabozantinib (NSC761068), nintedanib (NSC756659), abemaciclib (NSC768073), docetaxel (NSC628503), trametinib (NSC758246), and sapanisertib (NSC764658) were obtained from the National Cancer Institute (NCI) Developmental Therapeutics Program Chemical Repository. The FDA-approved anticancer drug set is available from the Developmental Therapeutics Program. […] The stock solutions were prepared in dimethyl sulfoxide (DMSO, Sigma-Aldrich, St. Louis, MO, cat. D2650) at 800-fold the tested concentration and stored at -70 degrees C prior to their use. All drugs and investigational agents were tested over a range starting from a high concentration at or near the clinical Cmax and decreasing in half-log increments. If the clinical Cmax for an agent had not been determined, the highest concentration tested was 10 microM.
Cell Culture. All cells were maintained in an incubator at 37 degrees C and 5% CO2 with 95% humidity. The PDC lines were cultured according to standard operating procedures established by the NCI PDMR (https://pdmr.cancer.gov/sops/default.htm). Briefly, all PDCs were thawed and cultured in Matrigel-coated flasks prepared with a working solution of 1X Ham's F-12 nutrient mix, without supplementation (Invitrogen, Waltham, MA, cat. 11765054), 100 U/mL penicillin-streptomycin (Invitrogen, cat. 15140122), and 2.5% Matrigel (Corning Inc., Corning, NY, cat. 354248) for the first three passages. All PDCs were cultured in complete DMEM/F-12 media containing advanced DMEM/F-12 (Invitrogen, cat. 12634028), 4.9% defined fetal bovine serum, heat inactivated (HyClone Laboratories Inc., Logan, UT, cat. SH30070.03HI), 389 ng/mL hydrocortisone (Sigma-Aldrich, cat. H4001), 9.7 ng/mL human EGF recombinant protein (Invitrogen, cat. PHG0313), 23.4 microg/mL adenine (Sigma-Aldrich, cat. A2786), 97.3 U/mL penicillin-streptomycin (Invitrogen, cat. 15140122), 1.9 mM L-glutamine (Invitrogen, cat. 25030081), and 9.7 microM Y-27632 dihydrochloride (Tocris Bioscience, Bristol, United Kingdom, cat. 1254). The PDCs were cultured in complete DMEM/F12 media without 9.7 microM Y-27632 dihydrochloride for at least two passages prior to the screen. The established cell line HOP-62 was cultured in RPMI 1640 medium, HEPES (Invitrogen, cat. 22400105) with 10% defined fetal bovine serum (HyClone Laboratories Inc., cat. SH30070.03) and 2 mM L-glutamine (Invitrogen, cat. 25030081). The pooled donor HUVEC were cultured in endothelial cell growth medium 2 (PromoCell, Heidelberg, Germany, cat. C-22011) and the hMSC were cultured in mesenchymal stem cell growth medium 2 (PromoCell, cat. C-28009). For all experiments, HUVEC and hMSC were used at passages </=5, while the malignant cell lines were used at passages </=15. […]

[1] = second compound 0.1 µM, first compound 0.0316 µM
[2] = second compound 0.1 µM, first compound 0.1 µM
[3] = second compound 0.1 µM, first compound 0.316 µM
[4] = second compound 0.1 µM, first compound 1 µM
[5] = second compound 0.1 µM, first compound 3.16 µM
[6] = second compound 0.1 µM, first compound 10 µM
[7] = second compound 0.316 µM, first compound 0.0316 µM
[8] = second compound 0.316 µM, first compound 0.1 µM
[9] = second compound 0.316 µM, first compound 0.316 µM
[10] = second compound 0.316 µM, first compound 1 µM
[11] = second compound 0.316 µM, first compound 3.16 µM
[12] = second compound 0.316 µM, first compound 10 µM
[13] = second compound 1 µM, first compound 0.0316 µM
[14] = second compound 1 µM, first compound 0.1 µM
[15] = second compound 1 µM, first compound 0.316 µM
[16] = second compound 1 µM, first compound 1 µM
[17] = second compound 1 µM, first compound 3.16 µM
[18] = second compound 1 µM, first compound 10 µM
[19] = second compound 3.16 µM, first compound 0.0316 µM
[20] = second compound 3.16 µM, first compound 0.1 µM
[21] = second compound 3.16 µM, first compound 0.316 µM
[22] = second compound 3.16 µM, first compound 1 µM
[23] = second compound 3.16 µM, first compound 3.16 µM
[24] = second compound 3.16 µM, first compound 10 µM
[25] = second compound 10 µM, first compound 0.0316 µM
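Note: cells exposed to agents for seven days before viability read.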
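Throughout, for viability, T/C: 100% = DMSO vehicle control wells and lower values mean fewer viable cells.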

SMILES: Cn1nccc1Nc1nccc(-c2cc3c(s2)C(C)(C)N(CCN2CCOCC2)C3=O)n1 + C=CC(=O)N1CCN(c2nc(OCC3CCCN3C)nc3c2CCN(c2cccc4cccc(C)c24)C3)CC1CC#N
- pIC50 (second compound 0.0316 µM): 5.32
- pIC50 (second compound 0.1 µM): < 5.00
- pIC50 (second compound 0.316 µM): < 5.00
- pIC50 (second compound 1 µM): < 5.00
- pIC50 (second compound 3.16 µM): 6.63
- viability, T/C (second compound 0.0316 µM, first compound 0.0316 µM): 99.8%
- viability, T/C (second compound 0.0316 µM, first compound 0.1 µM): 108%
- viability, T/C (second compound 0.0316 µM, first compound 0.316 µM): 86.1%
- viability, T/C (second compound 0.0316 µM, first compound 1 µM): 75.9%
- viability, T/C (second compound 0.0316 µM, first compound 3.16 µM): 51.7%
- viability, T/C (second compound 0.0316 µM, first compound 10 µM): 44.5%
- viability, T/C [1]: 100%
- viability, T/C [2]: 99.3%
- viability, T/C [3]: 79.7%
- viability, T/C [4]: 75.7%
- viability, T/C [5]: 51.7%
- viability, T/C [6]: 52.2%
- viability, T/C [7]: 109%
- viability, T/C [8]: 98%
- viability, T/C [9]: 101%
- viability, T/C [10]: 77.8%
- viability, T/C [11]: 56.4%
- viability, T/C [12]: 57.4%
- viability, T/C [13]: 101%
- viability, T/C [14]: 109%
- viability, T/C [15]: 87.2%
- viability, T/C [16]: 77%
- viability, T/C [17]: 55.3%
- viability, T/C [18]: 65.9%
- viability, T/C [19]: 68.7%
- viability, T/C [20]: 46.7%
- viability, T/C [21]: 46.7%
- viability, T/C [22]: 47.5%
- viability, T/C [23]: 21.2%
- viability, T/C [24]: 10.9%

SMILES: CCNC(=O)CC1N=C(c2ccc(Cl)cc2)c2cc(OC)ccc2-n2c(C)nnc21 (stereo not given) + CNCc1ccccc1-c1csc(C(C)Nc2nc(C)nc3cc(OC)c(OC)cc23)c1
- pIC50 (second compound 0.1 µM): < 5.00
- pIC50 (second compound 0.316 µM): < 5.00
- pIC50 (second compound 1 µM): < 5.00
- pIC50 (second compound 3.16 µM): > 7.50
- pIC50 (second compound 10 µM): > 7.50
- viability, T/C [1]: 86.7%
- viability, T/C [2]: 84.3%
- viability, T/C [3]: 68.2%
- viability, T/C [4]: 68.3%
- viability, T/C [5]: 72.8%
- viability, T/C [6]: 54.4%
- viability, T/C [7]: 88.2%
- viability, T/C [8]: 82.8%
- viability, T/C [9]: 85.5%
- viability, T/C [10]: 73.5%
- viability, T/C [11]: 72.7%
- viability, T/C [12]: 67.1%
- viability, T/C [13]: 87.3%
- viability, T/C [14]: 71.2%
- viability, T/C [15]: 67.2%
- viability, T/C [16]: 61%
- viability, T/C [17]: 56.8%
- viability, T/C [18]: 66.3%
- viability, T/C [19]: 0.46%
- viability, T/C [20]: 0.86%
- viability, T/C [21]: 2.72%
- viability, T/C [22]: 0.85%
- viability, T/C [23]: 2.19%
- viability, T/C [24]: 1.93%
- viability, T/C [25]: 0.24%
- viability, T/C (second compound 10 µM, first compound 0.1 µM): 1.77%
- viability, T/C (second compound 10 µM, first compound 0.316 µM): 0.22%
- viability, T/C (second compound 10 µM, first compound 1 µM): 0.26%
- viability, T/C (second compound 10 µM, first compound 3.16 µM): 0.43%
- viability, T/C (second compound 10 µM, first compound 10 µM): 0.23%

SMILES: CC(=O)Nc1cccc(-n2c(=O)n(C3CC3)c(=O)c3c(Nc4ccc(I)cc4F)n(C)c(=O)c(C)c32)c1 + CC1OCC2(CCN(c3cnc(Sc4ccnc(N)c4Cl)c(N)n3)CC2)C1N
- pIC50 (second compound 0.1 µM): 8.37
- pIC50 (second compound 0.316 µM): 8.61
- pIC50 (second compound 1 µM): 9.39
- pIC50 (second compound 3.16 µM): > 10.00
- pIC50 (second compound 10 µM): > 10.00
- viability, T/C (second compound 0.1 µM, first compound 0.0001 µM): 78.4%
- viability, T/C (second compound 0.1 µM, first compound 0.000316 µM): 87.2%
- viability, T/C (second compound 0.1 µM, first compound 0.001 µM): 65.8%
- viability, T/C (second compound 0.1 µM, first compound 0.00316 µM): 55.5%
- viability, T/C (second compound 0.1 µM, first compound 0.01 µM): 35.6%
- viability, T/C [1]: 13.1%
- viability, T/C (second compound 0.316 µM, first compound 0.0001 µM): 67%
- viability, T/C (second compound 0.316 µM, first compound 0.000316 µM): 74.1%
- viability, T/C (second compound 0.316 µM, first compound 0.001 µM): 61%
- viability, T/C (second compound 0.316 µM, first compound 0.00316 µM): 45.5%
- viability, T/C (second compound 0.316 µM, first compound 0.01 µM): 28%
- viability, T/C [7]: 13.5%
- viability, T/C (second compound 1 µM, first compound 0.0001 µM): 57.4%
- viability, T/C (second compound 1 µM, first compound 0.000316 µM): 55.4%
- viability, T/C (second compound 1 µM, first compound 0.001 µM): 42.6%
- viability, T/C (second compound 1 µM, first compound 0.00316 µM): 28.4%
- viability, T/C (second compound 1 µM, first compound 0.01 µM): 27.4%
- viability, T/C [13]: 7.28%
- viability, T/C (second compound 3.16 µM, first compound 0.0001 µM): 39.7%
- viability, T/C (second compound 3.16 µM, first compound 0.000316 µM): 31.9%
- viability, T/C (second compound 3.16 µM, first compound 0.001 µM): 23.3%
- viability, T/C (second compound 3.16 µM, first compound 0.00316 µM): 12.7%
- viability, T/C (second compound 3.16 µM, first compound 0.01 µM): 9.04%
- viability, T/C [19]: 5.79%
- viability, T/C (second compound 10 µM, first compound 0.0001 µM): 31.4%
- viability, T/C (second compound 10 µM, first compound 0.000316 µM): 23.7%
- viability, T/C (second compound 10 µM, first compound 0.001 µM): 14.7%
- viability, T/C (second compound 10 µM, first compound 0.00316 µM): 10.9%
- viability, T/C (second compound 10 µM, first compound 0.01 µM): 17.6%
- viability, T/C [25]: 8.53%
